Results on 23 compounds are retold here after ChEMBL document CHEMBL1139483, “Inhibitors of tripeptidyl peptidase II. 3. Derivation of butabindide by successive structure optimizations leading to a potential general approach to designing exopeptidase inhibitors” (J Med Chem, 2005).

The target of this test is Tripeptidyl-peptidase 2 (Rattus norvegicus, UniProt Q64560). Briefly: Inhibition of TPPII in rat cerebral membrane. In kind it is cell membranes.

Where a SMILES comes first, the peptide text is derived from it. [ ]: non-standard residue; d: D form. The star is where a group is joined. Pip = O=C(O)[C@@H]1CCCCN1; Nle = CCCC[C@H](N)C(=O)O; βNA = c1ccc2cc(N*)ccc2c1; Aze = O=C(O)[C@@H]1CCN1; Nva = CCC[C@H](N)C(=O)O; Abu = CC[C@H](N)C(=O)O; Aib = CC(C)(N)C(=O)O; NHBn = c1ccc(CN*)cc1; NHBu = CCCCN*

Chain of Tripeptidyl-peptidase 2 (Q64560 whole entry): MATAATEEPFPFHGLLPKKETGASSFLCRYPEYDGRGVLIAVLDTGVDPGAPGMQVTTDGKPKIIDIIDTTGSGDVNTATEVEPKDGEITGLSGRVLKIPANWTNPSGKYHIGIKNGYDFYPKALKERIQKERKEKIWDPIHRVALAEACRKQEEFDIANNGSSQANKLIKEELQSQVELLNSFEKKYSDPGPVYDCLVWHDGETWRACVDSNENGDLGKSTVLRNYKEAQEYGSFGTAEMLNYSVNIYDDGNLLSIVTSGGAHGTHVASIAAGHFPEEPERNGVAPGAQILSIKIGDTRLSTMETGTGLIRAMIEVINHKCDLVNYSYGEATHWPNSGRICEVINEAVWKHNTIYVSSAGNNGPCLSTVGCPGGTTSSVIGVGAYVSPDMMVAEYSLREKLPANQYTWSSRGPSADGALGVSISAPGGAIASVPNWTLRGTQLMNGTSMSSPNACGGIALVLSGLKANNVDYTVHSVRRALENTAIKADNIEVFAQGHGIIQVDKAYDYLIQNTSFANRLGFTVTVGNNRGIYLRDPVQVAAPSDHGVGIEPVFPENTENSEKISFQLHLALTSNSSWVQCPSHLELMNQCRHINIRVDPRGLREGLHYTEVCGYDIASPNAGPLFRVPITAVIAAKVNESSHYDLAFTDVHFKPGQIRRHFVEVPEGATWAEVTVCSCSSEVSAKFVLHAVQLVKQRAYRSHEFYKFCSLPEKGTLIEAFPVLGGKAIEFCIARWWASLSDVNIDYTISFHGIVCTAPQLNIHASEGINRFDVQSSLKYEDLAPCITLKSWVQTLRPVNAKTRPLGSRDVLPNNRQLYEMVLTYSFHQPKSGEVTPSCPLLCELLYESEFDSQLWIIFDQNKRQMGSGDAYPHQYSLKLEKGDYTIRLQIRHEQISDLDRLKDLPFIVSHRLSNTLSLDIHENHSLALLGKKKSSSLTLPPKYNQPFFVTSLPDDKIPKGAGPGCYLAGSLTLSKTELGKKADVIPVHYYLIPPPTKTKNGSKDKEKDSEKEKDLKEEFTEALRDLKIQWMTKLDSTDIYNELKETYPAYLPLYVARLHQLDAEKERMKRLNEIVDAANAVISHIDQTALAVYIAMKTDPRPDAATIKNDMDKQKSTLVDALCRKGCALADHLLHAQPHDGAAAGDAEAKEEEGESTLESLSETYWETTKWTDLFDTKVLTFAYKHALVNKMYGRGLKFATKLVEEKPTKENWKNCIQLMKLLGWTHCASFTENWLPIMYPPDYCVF

`CCCCNC(=O)[C@@H]1CCCCN1C(=O)[C@@H](N)CC` (H-[Abu]-[Pip]-NHBu) registered a Ki of 35 µM.
As for `CCCCNC(=O)[C@@H]1CCCN1C(=O)[C@@H](N)CC` (H-[Abu]-Pro-NHBu), the affinity corresponds to a Ki of 0.08 µM.
Take `CCCCNC(=O)[C@@H]1CCCN1C(=O)C(C)(C)N` (H-[Aib]-Pro-NHBu): the Ki worked out at 5 µM.
The figure for `CC[C@H](N)C(=O)N1CCC[C@H]1C(N)=O` (H-[Abu]-Pro-NH2) is 0.57 µM.
As for `CC(C)[C@H](N)C(=O)N1CCC[C@H]1C(N)=O` (H-Val-Pro-NH2), the figure is 6 µM; as for `CC[C@H](N)C(=O)N1CCC[C@H](C(N)=O)C1`, 40 µM; as for `CCCCNC(=O)C1CCCCCN1C(=O)[C@@H](N)CC` (stereo partly drawn), 6 µM.
As for `CC[C@@H](C)NC(=O)[C@@H]1CCCN1C(=O)[C@@H](N)CC`, the figure is 4.5 µM; as for `NC(=O)[C@@H]1CCCN1C(=O)[C@@H](N)Cc1ccccc1` (H-Phe-Pro-NH2), 71 µM.
`CCC[C@H](N)C(=O)N1CCC[C@H]1C(N)=O` (H-[Nva]-Pro-NH2) came in with a Ki of 1.6 µM.
The figure for `CC(C)C[C@H](N)C(=O)N1CCC[C@H]1C(N)=O` (H-Leu-Pro-NH2) is 2.1 µM; for `CC[C@H](N)C(=O)N1CSC[C@@H]1C(N)=O` it is 40 µM.
The figure for `C[C@H](N)C(=O)N1CCC[C@H]1C(N)=O` (H-Ala-Pro-NH2) is 2.1 µM; for `CC(C)[C@H](N)C(=O)N1CCC[C@H]1C(=O)NN1CCCCC1` it is 57 µM; for `CC[C@H](N)C(=O)N1CCCC[C@@H]1C(N)=O` it is 12 µM.
As for `CC[C@H](C)[C@H](N)C(=O)N1CCC[C@H]1C(N)=O` (H-Ile-Pro-NH2), the figure is 4.3 µM; as for `CC(C)[C@H](N)C(=O)N1CCC[C@H]1C(=O)NCc1ccccc1` (H-Val-Pro-NHBn), 3.3 µM.
As to `CCCC[C@H](N)C(=O)N1CCC[C@H]1C(N)=O` (H-[Nle]-Pro-NH2), the Ki worked out at 2 µM.
`CC[C@H](C)NC(=O)[C@@H]1CCCN1C(=O)[C@@H](N)CC` had a Ki of 20 µM.
As for `CC(C)[C@H](N)C(=O)N1CCC[C@H]1C(=O)Nc1ccc2ccccc2c1` (H-Val-Pro-βNA), the figure is 860 µM; as for `CC[C@H](N)C(=O)N1CC[C@H]1C(N)=O` (H-[Abu]-[Aze]-NH2), 20 µM.
As for `CCCCNC(=O)[C@H]1CCCN1C(=O)[C@@H](N)C(C)C`, the figure is 190 µM.
As for `CCCCNC(=O)[C@@H]1CC(Cc2ccccc2)CN1C(=O)[C@@H](N)CC` (stereo partly drawn), the figure is 0.14 µM.

One may read the Ki as a measure of affinity in units of concentration, obtained from inhibition or displacement.
